How the values were obtained:
Aspergillus brasiliensis = test: Single-species biofilm (microfouling) growth inhibition, crystal violet biomass; assay type: cell-based; conditions: 24 hours, untreated control 1.1
Method: (§1) Fresh stock solution of lactam was prepared at 20 mM in DMSO. Lactam stock was then serially diluted in tissue culture plates in 100% ethanol first ten-fold and subsequently to the desired concentrations. Plates were then left to dry overnight in a fume hood.
(§2) Single species plates were inoculated with each 1×10^6 bacteria/Aspergillus in marine broth and left for 24 hours. Multispecies plates were inoculated with 1×10^5 S. algae, V. anguillarium V. alginolyticus and 1×10^6 C. marina, A. brasiliensis, P. atlantica, C. lytica in marine broth and left for 24 hours, 48 and 72 hours. Plates were washed twice and left overnight to dry. Crystal violet (0.05% w/v) was added for 20 minutes and destained using 100% ethanol. Biomass was measured by optical density (OD) at 570 nm.
(§3) In this experiment, the plates were treated with lactam at levels of 0.0312 mM to 2 mM as well as an untreated control. The specific levels of lactam measured were of 0.0312 mM, of 0.0625 mM, of 0.125 mM, of 0.25 mM, of 0.5 mM, 1 mM, and 2 mM. This would equate to levels of from ˜6 ppm ([…]) to 400 ppm (2 mM), and to wt. % of 0.0006 wt. % ([…]) to 0.04 wt. % (2 mM). The lactam was provided in a DMSO/ethanol solvent to the plates. The plate was then inoculated with the marine organism or mixture thereof. The rate of growth of the culture was measured after 24 hours days by optical density.

Cellulophaga lytica = test: as above; assay type: cell-based; conditions: 24 hours; for Optical Density (570 nm): untreated control 0.7; for lactam concentration with biofilm growth inhibition effect: Cellulophaga lytica
Method: as §1, §2, §3

Vibrio anguillarium = test: as above; assay type: cell-based; conditions: 24 hours, untreated control 0.5
Method: as §1, §2, §3

[1] = system: mixture of the 7 marine organisms (Pseudoalteromonas atlantica, Cellulophaga lytica, Shewanella algae, Cobetia marina, Vibrio anguillarium, Vibrio …); test: Multispecies biofilm (microfouling) growth inhibition, crystal violet biomass; assay type: cell-based, mixture of 7 marine organisms; conditions: for lactam concentration that inhibited biofilm growth: 7 marine organism mixture, 24, 48 and 72 hr
Method: as §2, with “Fresh stock solution of lactam was prepared at 20 mM in DMSO. Lactam stock was then serially diluted in tissue culture plates in 100% ethanol first ten-fold and subsequently to the desired concentrations. Plates were then left to dry overnight in a fume hood. Single” for “Single”
The marine species were as used for example 2: Shewanella algae, Cobetia marina, Vibrio alginolyticus, or Pseudoalteromonas atlantica, Aspergillus brasiliensis, Vibrio anguillarium, and Cellulophaga lytica. This time they were used in combination as a mixture to better model the marine environment, and the growth inhibition effect of the lactams on the challenging marine organism mixture was tested. This a challenging test as the presence of marine organisms where the lactam didn't have a growth inhibition effect would be expected to lead to biofilm growth. The results are shown in FIGS. 4 and 5 and Tables 2 and 3.

[2] = 0.0312 mM lactam, 24 hr, untreated control 1.3
[3] = 0.0312 mM lactam, 48 hr, untreated control 1.8
[4] = 0.0312 mM lactam, 72 hr, untreated control 1.1
[5] = 0.0625 mM lactam, 24 hr, untreated control 1.3
[6] = 0.0625 mM lactam, 48 hr, untreated control 1.8
[7] = 0.0625 mM lactam, 72 hr, untreated control 1.1
[8] = 0.125 mM lactam, 24 hr, untreated control 1.3
[9] = 0.125 mM lactam, 48 hr, untreated control 1.8
[10] = 0.125 mM lactam, 72 hr, untreated control 1.1
[11] = 0.25 mM lactam, 24 hr, untreated control 1.3
[12] = 0.25 mM lactam, 48 hr, untreated control 1.8
[13] = 0.25 mM lactam, 72 hr, untreated control 1.1
[14] = 0.5 mM lactam, 24 hr, untreated control 1.3
[15] = 0.5 mM lactam, 48 hr, untreated control 1.8
[16] = 0.5 mM lactam, 72 hr, untreated control 1.1
[17] = 1 mM lactam, 24 hr, untreated control 1.3
[18] = 1 mM lactam, 48 hr, untreated control 1.8
[19] = 1 mM lactam, 72 hr, untreated control 1.1
[20] = 2 mM lactam, 24 hr, untreated control 1.3
[21] = 2 mM lactam, 48 hr, untreated control 1.8
[22] = 2 mM lactam, 72 hr, untreated control 1.1

C=C1NC(=O)C=C1c1ccc(Cl)cc1 [lactam 488, 4-(4-chlorophenyl)-5-methylene-pyrrol-2-one]
Optical Density (570 nm) (Aspergillus brasiliensis; 0.0312 mM lactam): 0.5
Optical Density (570 nm) (Aspergillus brasiliensis; 0.0625 mM lactam): 0.6
Optical Density (570 nm) (Aspergillus brasiliensis; 0.125 mM lactam): 0.5
Optical Density (570 nm) (Aspergillus brasiliensis; 0.25 mM lactam): 0.4
Optical Density (570 nm) (Aspergillus brasiliensis; 0.5 mM lactam): 0.6
Optical Density (570 nm) (Aspergillus brasiliensis; 1 mM lactam): 0.5
Optical Density (570 nm) (Aspergillus brasiliensis; 2 mM lactam): 0.4
Optical Density (570 nm) (Cellulophaga lytica; 0.0312 mM lactam): 0.9
Optical Density (570 nm) (Cellulophaga lytica; 0.0625 mM lactam): 0.9
Optical Density (570 nm) (Cellulophaga lytica; 0.125 mM lactam): 0.8
Optical Density (570 nm) (Cellulophaga lytica; 0.25 mM lactam): 0.8
Optical Density (570 nm) (Cellulophaga lytica; 0.5 mM lactam): 0.2
Optical Density (570 nm) (Cellulophaga lytica; 1 mM lactam): 0.2
Optical Density (570 nm) (Cellulophaga lytica; 2 mM lactam): 0.1
lactam concentration with biofilm growth inhibition effect (Cellulophaga lytica): > 0.5 mM
Optical Density (570 nm) (Vibrio anguillarium; 0.0312 mM lactam): 0.5
Optical Density (570 nm) (Vibrio anguillarium; 0.0625 mM lactam): 0.6
Optical Density (570 nm) (Vibrio anguillarium; 0.125 mM lactam): 0.7
Optical Density (570 nm) (Vibrio anguillarium; 0.25 mM lactam): 0.6
Optical Density (570 nm) (Vibrio anguillarium; 0.5 mM lactam): 0.2
Optical Density (570 nm) (Vibrio anguillarium; 1 mM lactam): 0.1
Optical Density (570 nm) (Vibrio anguillarium; 2 mM lactam): 0.1
Optical Density (570 nm) [1, 2]: 1.3
Optical Density (570 nm) [1, 3]: 1.5
Optical Density (570 nm) [1, 4]: 1.4
Optical Density (570 nm) [1, 5]: 1.4
Optical Density (570 nm) [1, 6]: 1.8
Optical Density (570 nm) [1, 7]: 1.4
Optical Density (570 nm) [1, 8]: 1.2
Optical Density (570 nm) [1, 9]: 1.7
Optical Density (570 nm) [1, 10]: 1.2
Optical Density (570 nm) [1, 11]: 1
Optical Density (570 nm) [1, 12]: 1.3
Optical Density (570 nm) [1, 13]: 1.0
Optical Density (570 nm) [1, 14]: 0.6
Optical Density (570 nm) [1, 15]: 0.6
Optical Density (570 nm) [1, 16]: 0.4
Optical Density (570 nm) [1, 17]: 0.3
Optical Density (570 nm) [1, 18]: 0.2
Optical Density (570 nm) [1, 19]: 0.1
Optical Density (570 nm) [1, 20]: 0.1
Optical Density (570 nm) [1, 21]: 0.1
Optical Density (570 nm) [1, 22]: 0.1
lactam concentration that inhibited biofilm growth [1]: > 0.25 mM

C=C1NC(=O)C=C1c1ccc(C)cc1 [lactam 491, 5-methylene-4-(p-tolyl)pyrrol-2-one]
Optical Density (570 nm) (Aspergillus brasiliensis; 0.0312 mM lactam): 0.4
Optical Density (570 nm) (Aspergillus brasiliensis; 0.0625 mM lactam): 0.5
Optical Density (570 nm) (Aspergillus brasiliensis; 0.125 mM lactam): 0.5
Optical Density (570 nm) (Aspergillus brasiliensis; 0.25 mM lactam): 0.5
Optical Density (570 nm) (Aspergillus brasiliensis; 0.5 mM lactam): 0.5
Optical Density (570 nm) (Aspergillus brasiliensis; 1 mM lactam): 0.3
Optical Density (570 nm) (Aspergillus brasiliensis; 2 mM lactam): 0.4
Optical Density (570 nm) (Cellulophaga lytica; 0.0312 mM lactam): 0.9
Optical Density (570 nm) (Cellulophaga lytica; 0.0625 mM lactam): 1.0
Optical Density (570 nm) (Cellulophaga lytica; 0.125 mM lactam): 0.9
Optical Density (570 nm) (Cellulophaga lytica; 0.25 mM lactam): 0.9
Optical Density (570 nm) (Cellulophaga lytica; 0.5 mM lactam): 1.0
Optical Density (570 nm) (Cellulophaga lytica; 1 mM lactam): 0.5
Optical Density (570 nm) (Cellulophaga lytica; 2 mM lactam): 0.6
lactam concentration with biofilm growth inhibition effect (Cellulophaga lytica): > 1 mM
Optical Density (570 nm) (Vibrio anguillarium; 0.0312 mM lactam): 0.2
Optical Density (570 nm) (Vibrio anguillarium; 0.0625 mM lactam): 0.7
Optical Density (570 nm) (Vibrio anguillarium; 0.125 mM lactam): 0.7
Optical Density (570 nm) (Vibrio anguillarium; 0.25 mM lactam): 0.3
Optical Density (570 nm) (Vibrio anguillarium; 0.5 mM lactam): 0.4
Optical Density (570 nm) (Vibrio anguillarium; 1 mM lactam): 0.2
Optical Density (570 nm) (Vibrio anguillarium; 2 mM lactam): 0.1
Optical Density (570 nm) [1, 2]: 1.2
Optical Density (570 nm) [1, 3]: 1.7
Optical Density (570 nm) [1, 4]: 1.3
Optical Density (570 nm) [1, 5]: 1.1
Optical Density (570 nm) [1, 6]: 1.8
Optical Density (570 nm) [1, 7]: 1.2
Optical Density (570 nm) [1, 8]: 0.9
Optical Density (570 nm) [1, 9]: 1.6
Optical Density (570 nm) [1, 10]: 1.0
Optical Density (570 nm) [1, 11]: 0.9
Optical Density (570 nm) [1, 12]: 1.4
Optical Density (570 nm) [1, 13]: 0.9
Optical Density (570 nm) [1, 14]: 1.0
Optical Density (570 nm) [1, 15]: 1.2
Optical Density (570 nm) [1, 16]: 0.9
Optical Density (570 nm) [1, 17]: 0.7
Optical Density (570 nm) [1, 18]: 1.3
Optical Density (570 nm) [1, 19]: 1.2
Optical Density (570 nm) [1, 20]: 0.2
Optical Density (570 nm) [1, 21]: 0.2
Optical Density (570 nm) [1, 22]: 0.3
lactam concentration that inhibited biofilm growth [1]: > 0.25 mM

Source: patent US12180388B2, “Method of treatment of a surface” (Conopco, Inc., priority 2018, dated 2024)
